In brackets after ≈: the same amount, converted by molar mass.
Tests used:
Experiment in all cases: ≥ marks a high value that may be exact or a test limit, other limits are often not marked, values filed in µg/mL are converted to µM
[1] = test system: Salmonella typhimurium KCTC 1926
[2] = test system: Escherichia coli KCTC 1682
[3] = test system: Pseudomonas aeruginosa KCTC 1637
[4] = test system: Bacillus subtilis KCTC 1918
[5] = test system: Staphylococcus aureus KCTC 1621
[6] = test system: Aspergillus fumigatus KCTC 4165
[7] = test system: Candida albicans TIMM 1768
[8] = test system: Streptococcus pyogenes KCTC 3096

MIC [1]: 1.56 µM (≈ 3.35 µg/mL)
MIC [2]: 3.12 µM (≈ 6.7 µg/mL)
MIC [3]: 0.78 µM (≈ 1.67 µg/mL)
MIC [4]: 3.12 µM (≈ 6.7 µg/mL)
MIC [5]: 1.56 µM (≈ 3.35 µg/mL)
MIC [6]: 12.5 µM (≈ 26.8 µg/mL)
MIC [7]: 6.25 µM (≈ 13.4 µg/mL)
MIC [8]: 3.12 µM (≈ 6.7 µg/mL)
Compound: CC[C@H](C)[C@H](NC(=O)[C@H](CCCCN)NC(=O)[C@H](CCCCN)NC(=O)[C@H](CC(C)C)NC(=O)[C@H](CCCCN)NC(=O)[C@H](CCCCN)NC(=O)CN)C(=O)NCC(=O)N[C@@H](CCC(N)=O)C(=O)N[C@@H](CCCCN)C(=O)N[C@H](C(=O)N[C@@H](CCCCN)C(=O)N[C@@H](CC(N)=O)C(=O)N[C@@H](Cc1ccccc1)C(=O)N[C@@H](Cc1ccccc1)C(=O)N[C@@H](CCC(N)=O)C(=O)N[C@@H](CCCCN)C(=O)N[C@@H](CC(C)C)C(=O)O)[C@@H](C)CC [GKKLKKIGQKIKNFFQKL]

Source: DBAASP
